Values of other authors in patent US10570425B2, “Engineered cyanobacterium and its application for producing acetate” (National Tsing Hua University, priority 2017, dated 2020).

B1: Ec-pta: phosphate acetyltransferase Pta from Escherichia coli (protein, UniProt P0A9M8 2-714, looked up)
Phosphate acetyltransferase: SRIIMLIPTGTSVGLTSVSLGVIRAMERKGVRLSVFKPIAQPRTGGDAPDQTTTIVRANSSTTTAAEPLKMSYVEGLLSSNQKDVLMEEIVANYHANTKDAEVVLVEGLVPTRKHQFAQSLNYEIAKTLNAEIVFVMSQGTDTPEQLKERIELTRNSFGGAKNTNITGVIVNKLNAPVDEQGRTRPDLSEIFDDSSKAKVNNVDPAKLQESSPLPVLGAVPWSFDLIATRAIDMARHLNATIINEGDINTRRVKSVTFCARSIPHMLEHFRAGSLLVTSADRPDVLVAACLAAMNGVEIGALLLTGGYEMDARISKLCERAFATGLPVFMVNTNTWQTSLSLQSFNLEVPVDDHERIEKVQEYVANYINADWIESLTATSERSRRLSPPAFRYQLTELARKAGKRIVLPEGDEPRTVKAAAICAERGIATCVLLGNPAEINRVAASQGVELGAGIEIVDPEVVRESYVGRLVELRKNKGMTETVAREQLEDNVVLGTLMLEQDEVDGLVSGAVHTTANTIRPPLQLIKTAPGSSLVSSVFFMLLPEQVYVYGDCAINPDPTAEQLAEIAIQSADSAAAFGIEPRVAMLSYSTGTSGAGSDVEKVREATRLAQEKRPDLMIDGPLQYDAAVMADVAKSKAPNSPVAGRATVFIFPDLNTGNTTYKAVQRSADLISIGPMLQGMRKPVNDLSRGALVDDIVYTIALTAIQSAQQQ

Tests used:
padA = conditions: substrate of padA as titled, Table 5
[1] = system: phenylacetaldehyde dehydrogenase (PadA); conditions: substrate of padA, Table 4
[2] = target: 3-hydroxypropionaldehyde dehydrogenase (AldH) (Escherichia coli, UniProt P23883); conditions: substrate of AldH
[3] = target: acetaldehyde dehydrogenase B (AldB) (Escherichia coli, UniProt P37685); conditions: substrate of aldB
[4] = system: phosphate acetyltransferases (Pta and EutD); conditions: Acetyl-CoA forming reaction; for kcat/KmAc-P: substrate Ac-P; for kcat/KmCoA: substrate CoA

Chain of acetaldehyde dehydrogenase B (AldB) (P37685 whole entry): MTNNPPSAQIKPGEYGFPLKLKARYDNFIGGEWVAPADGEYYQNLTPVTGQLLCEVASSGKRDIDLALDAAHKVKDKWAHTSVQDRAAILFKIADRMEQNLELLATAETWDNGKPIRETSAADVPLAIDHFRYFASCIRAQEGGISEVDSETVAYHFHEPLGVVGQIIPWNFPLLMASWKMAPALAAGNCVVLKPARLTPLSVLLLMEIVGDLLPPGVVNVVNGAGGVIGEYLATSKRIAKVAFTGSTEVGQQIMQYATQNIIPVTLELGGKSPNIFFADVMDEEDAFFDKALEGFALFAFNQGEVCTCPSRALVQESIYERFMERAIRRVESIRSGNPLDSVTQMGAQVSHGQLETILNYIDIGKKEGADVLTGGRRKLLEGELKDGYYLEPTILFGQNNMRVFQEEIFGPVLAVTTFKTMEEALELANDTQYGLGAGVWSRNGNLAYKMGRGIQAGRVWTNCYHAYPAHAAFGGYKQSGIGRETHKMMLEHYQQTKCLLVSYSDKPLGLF
Chain of 3-hydroxypropionaldehyde dehydrogenase (AldH) (P23883 whole entry): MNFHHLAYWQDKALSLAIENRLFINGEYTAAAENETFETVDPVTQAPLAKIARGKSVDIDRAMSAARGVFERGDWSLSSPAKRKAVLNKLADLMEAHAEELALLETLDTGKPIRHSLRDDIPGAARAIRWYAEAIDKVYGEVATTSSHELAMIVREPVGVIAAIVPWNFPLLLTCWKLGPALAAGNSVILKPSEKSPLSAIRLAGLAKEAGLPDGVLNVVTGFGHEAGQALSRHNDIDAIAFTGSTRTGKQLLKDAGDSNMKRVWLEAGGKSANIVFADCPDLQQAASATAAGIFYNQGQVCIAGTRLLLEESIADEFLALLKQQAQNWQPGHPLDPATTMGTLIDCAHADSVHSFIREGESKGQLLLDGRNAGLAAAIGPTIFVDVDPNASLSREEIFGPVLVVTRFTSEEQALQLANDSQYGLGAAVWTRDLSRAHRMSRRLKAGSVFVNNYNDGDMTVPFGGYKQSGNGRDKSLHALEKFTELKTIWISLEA

Molecule	Km (padA)	Km [1]	Km [2]	Km [3]	kcat/KmAc-P [4]	kcat/KmCoA [4]
CCC=O [Propionaldehyde]	240 µM	11.6 µM	1210 µM	5.8 µM	–	–
CC=O [Acetaldehyde]	15200 µM	2150 µM	1000 µM	2.5 µM	–	–
Ec-eutD: phosphate acetyltransferase EutD from Escherichia coli	–	–	–	–	1.3 sec^−1μM^−1	12.6 sec^−1μM^−1
O=Cc1ccccc1 [Benzaldehyde]	150 µM	8 µM	–	–	–	–
O=CCCl [Chloroacetaldehyde]	–	–	–	3.6 µM	–	–
O=CCCO [3-Hydroxypropionaldehyde]	–	–	490 µM	–	–	–
B1	–	–	–	–	0.25 sec^−1μM^−1	3.4 sec^−1μM^−1
